SMILES strings stand for the structures. pIC50: −log10 of the molar value. A value given as a limit tells only on which side of the number the result lay.

Data set [1] has as its target Acetyl-CoA carboxylase 1 (Homo sapiens, UniProt Q13085). The experiment in a line: biochemical.
Description: Inhibition of recombinant human His-tagged ACC1 expressed in baculovirus infected SF9 cells using acetyl-CoA as substrate incubated for 60 mins followed by substrate addition and measured after 30 mins Rapidfire-Mass spectrometry
Data set [2] deals with Acetyl-CoA carboxylase 2 (Homo sapiens, UniProt O00763). The experiment in a line: biochemical.
Description: Inhibition of recombinant human His-tagged ACC2 expressed in baculovirus infected SF9 cells using acetyl-CoA as substrate incubated for 60 mins followed by substrate addition and measured after 30 mins Rapidfire-Mass spectrometry
Data set [3] can be described thus: in vivo. As to conditions: ICR, mouse, iv, 0.1 mg/kg.
A short description of data set [4]: in vivo. The settings on record: ICR, mouse, po, 1 mg/kg.
The nature of data set [5]: in vivo. The settings on record: ICR, mouse, po, 1 mg/kg. This is another data set of the same source.
Description: MRT in ICR mouse at 1 mg/kg, po
Data set [6] is described as follows: in vivo. As to conditions: ICR, mouse, iv, 0.1 mg/kg. This is another data set of the same source.
Description: Half life in ICR mouse at 0.1 mg/kg, iv
Data set [7] is described as follows: in vivo. As to conditions: ICR, mouse, iv, 0.1 mg/kg. The source holds these as a separate data set.
Description: Clearance in ICR mouse at 0.1 mg/kg, iv
Data set [8] can be described thus: in vivo. As to conditions: ICR, mouse, iv, 0.1 mg/kg. The source holds these as a separate data set.
Description: Volume of distribution at steady state in ICR mouse at 0.1 mg/kg, iv
A short description of data set [9]: in vivo. The settings on record: ICR, mouse, po, 1 mg/kg. This is another data set of the same source.
Data set [10] can be described thus: in vitro. The settings on record: PAMPA, pH 5. (In general: The PAMPA barrier holds no transporters, so it reflects passive diffusion.)
Description: Permeability of compound at pH 5 by PAMPA assay
Data set [11] can be described thus: in vitro. As to conditions: human, liver microsomes.
Description: Metabolic stability in human Liver microsomes
Data set [12] is described as follows: in vitro. As to conditions: mouse, liver microsomes. In general terms: Microsomes from liver hold many membrane-bound enzymes, among them those of drug oxidation.
Description: Metabolic stability in mouse Liver microsomes
A short description of data set [13]: in vitro. The settings on record: PAMPA, pH 7.4.
Description: Permeability of compound at pH 7.4 by PAMPA assay
Data set [14] addresses Acetyl-CoA carboxylase 1 (Mus musculus, UniProt Q5SWU9). Kind of data set: biochemical.
Description: Inhibition of mouse His-tagged ACC1 expressed in baculovirus infected SF9 cells using acetyl-CoA as substrate incubated for 60 mins followed by substrate addition and measured after 30 mins Rapidfire-Mass spectrometry
Data set [15] has as its target Acetyl-CoA carboxylase 2 (Mus musculus, UniProt E9Q4Z2). Kind of data set: biochemical.
Description: Inhibition of mouse His-tagged ACC2 expressed in baculovirus infected SF9 cells using acetyl-CoA as substrate incubated for 60 mins followed by substrate addition and measured after 30 mins Rapidfire-Mass spectrometry

Acetyl-CoA carboxylase 2 (Homo sapiens, UniProt O00763), sequence (O00763 whole entry): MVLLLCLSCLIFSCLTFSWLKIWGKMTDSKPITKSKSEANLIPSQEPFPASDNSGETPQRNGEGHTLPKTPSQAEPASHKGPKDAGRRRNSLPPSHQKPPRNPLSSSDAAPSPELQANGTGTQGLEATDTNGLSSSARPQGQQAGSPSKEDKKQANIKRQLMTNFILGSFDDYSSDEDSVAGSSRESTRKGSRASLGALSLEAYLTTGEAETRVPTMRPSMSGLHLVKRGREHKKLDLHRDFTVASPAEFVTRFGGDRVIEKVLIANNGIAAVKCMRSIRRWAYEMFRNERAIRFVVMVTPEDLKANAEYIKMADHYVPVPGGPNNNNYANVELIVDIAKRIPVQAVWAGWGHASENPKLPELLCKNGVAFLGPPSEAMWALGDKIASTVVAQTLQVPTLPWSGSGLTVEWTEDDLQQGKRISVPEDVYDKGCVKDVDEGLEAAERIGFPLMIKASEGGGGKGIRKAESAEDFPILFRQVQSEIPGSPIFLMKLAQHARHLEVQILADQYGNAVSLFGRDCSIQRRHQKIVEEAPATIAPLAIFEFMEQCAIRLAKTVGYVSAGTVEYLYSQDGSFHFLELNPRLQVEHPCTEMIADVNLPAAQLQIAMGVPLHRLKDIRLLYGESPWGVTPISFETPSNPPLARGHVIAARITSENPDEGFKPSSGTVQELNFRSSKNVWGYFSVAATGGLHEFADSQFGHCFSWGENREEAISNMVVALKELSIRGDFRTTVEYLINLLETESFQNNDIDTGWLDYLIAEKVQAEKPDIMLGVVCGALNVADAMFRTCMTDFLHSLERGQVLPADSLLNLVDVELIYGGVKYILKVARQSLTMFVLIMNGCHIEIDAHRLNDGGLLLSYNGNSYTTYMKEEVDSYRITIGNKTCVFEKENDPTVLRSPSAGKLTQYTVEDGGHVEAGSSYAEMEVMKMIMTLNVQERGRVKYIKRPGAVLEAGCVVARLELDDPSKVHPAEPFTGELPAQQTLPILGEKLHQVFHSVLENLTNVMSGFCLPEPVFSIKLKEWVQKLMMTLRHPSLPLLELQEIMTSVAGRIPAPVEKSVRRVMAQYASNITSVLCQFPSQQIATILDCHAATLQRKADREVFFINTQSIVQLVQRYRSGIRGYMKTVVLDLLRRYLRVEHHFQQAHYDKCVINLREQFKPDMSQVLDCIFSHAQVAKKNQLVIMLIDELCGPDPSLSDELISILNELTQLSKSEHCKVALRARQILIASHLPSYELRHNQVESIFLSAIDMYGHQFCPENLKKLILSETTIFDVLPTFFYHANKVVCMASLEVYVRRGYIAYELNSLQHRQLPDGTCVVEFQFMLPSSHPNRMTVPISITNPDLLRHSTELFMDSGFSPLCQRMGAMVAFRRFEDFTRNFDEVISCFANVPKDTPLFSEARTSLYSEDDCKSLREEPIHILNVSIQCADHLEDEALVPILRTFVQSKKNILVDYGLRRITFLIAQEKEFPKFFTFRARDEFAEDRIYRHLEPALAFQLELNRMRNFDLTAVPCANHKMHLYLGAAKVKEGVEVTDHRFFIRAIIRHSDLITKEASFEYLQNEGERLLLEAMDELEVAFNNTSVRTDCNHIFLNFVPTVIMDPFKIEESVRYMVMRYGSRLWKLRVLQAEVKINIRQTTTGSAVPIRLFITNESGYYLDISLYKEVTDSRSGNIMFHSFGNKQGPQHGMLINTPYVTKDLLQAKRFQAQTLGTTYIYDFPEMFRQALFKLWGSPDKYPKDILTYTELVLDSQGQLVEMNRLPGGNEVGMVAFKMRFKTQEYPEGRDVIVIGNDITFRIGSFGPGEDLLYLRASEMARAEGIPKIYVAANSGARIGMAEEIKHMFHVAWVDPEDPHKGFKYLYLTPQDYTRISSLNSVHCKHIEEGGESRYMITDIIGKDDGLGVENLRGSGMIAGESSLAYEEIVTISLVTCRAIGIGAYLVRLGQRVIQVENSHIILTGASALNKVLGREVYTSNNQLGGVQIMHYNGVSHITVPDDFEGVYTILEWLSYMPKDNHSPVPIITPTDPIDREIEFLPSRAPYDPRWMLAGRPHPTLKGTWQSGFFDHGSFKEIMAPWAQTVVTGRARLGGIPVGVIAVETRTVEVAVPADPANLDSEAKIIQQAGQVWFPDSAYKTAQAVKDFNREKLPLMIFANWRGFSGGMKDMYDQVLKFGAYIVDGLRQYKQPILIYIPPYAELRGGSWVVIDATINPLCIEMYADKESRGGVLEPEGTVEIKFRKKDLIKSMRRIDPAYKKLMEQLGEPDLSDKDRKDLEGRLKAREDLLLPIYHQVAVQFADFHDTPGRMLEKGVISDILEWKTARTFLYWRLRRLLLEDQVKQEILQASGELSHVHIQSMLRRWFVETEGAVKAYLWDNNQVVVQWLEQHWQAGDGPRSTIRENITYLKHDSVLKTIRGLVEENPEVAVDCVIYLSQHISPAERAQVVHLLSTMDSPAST
Acetyl-CoA carboxylase 2 (Mus musculus, UniProt E9Q4Z2), sequence (E9Q4Z2 whole entry): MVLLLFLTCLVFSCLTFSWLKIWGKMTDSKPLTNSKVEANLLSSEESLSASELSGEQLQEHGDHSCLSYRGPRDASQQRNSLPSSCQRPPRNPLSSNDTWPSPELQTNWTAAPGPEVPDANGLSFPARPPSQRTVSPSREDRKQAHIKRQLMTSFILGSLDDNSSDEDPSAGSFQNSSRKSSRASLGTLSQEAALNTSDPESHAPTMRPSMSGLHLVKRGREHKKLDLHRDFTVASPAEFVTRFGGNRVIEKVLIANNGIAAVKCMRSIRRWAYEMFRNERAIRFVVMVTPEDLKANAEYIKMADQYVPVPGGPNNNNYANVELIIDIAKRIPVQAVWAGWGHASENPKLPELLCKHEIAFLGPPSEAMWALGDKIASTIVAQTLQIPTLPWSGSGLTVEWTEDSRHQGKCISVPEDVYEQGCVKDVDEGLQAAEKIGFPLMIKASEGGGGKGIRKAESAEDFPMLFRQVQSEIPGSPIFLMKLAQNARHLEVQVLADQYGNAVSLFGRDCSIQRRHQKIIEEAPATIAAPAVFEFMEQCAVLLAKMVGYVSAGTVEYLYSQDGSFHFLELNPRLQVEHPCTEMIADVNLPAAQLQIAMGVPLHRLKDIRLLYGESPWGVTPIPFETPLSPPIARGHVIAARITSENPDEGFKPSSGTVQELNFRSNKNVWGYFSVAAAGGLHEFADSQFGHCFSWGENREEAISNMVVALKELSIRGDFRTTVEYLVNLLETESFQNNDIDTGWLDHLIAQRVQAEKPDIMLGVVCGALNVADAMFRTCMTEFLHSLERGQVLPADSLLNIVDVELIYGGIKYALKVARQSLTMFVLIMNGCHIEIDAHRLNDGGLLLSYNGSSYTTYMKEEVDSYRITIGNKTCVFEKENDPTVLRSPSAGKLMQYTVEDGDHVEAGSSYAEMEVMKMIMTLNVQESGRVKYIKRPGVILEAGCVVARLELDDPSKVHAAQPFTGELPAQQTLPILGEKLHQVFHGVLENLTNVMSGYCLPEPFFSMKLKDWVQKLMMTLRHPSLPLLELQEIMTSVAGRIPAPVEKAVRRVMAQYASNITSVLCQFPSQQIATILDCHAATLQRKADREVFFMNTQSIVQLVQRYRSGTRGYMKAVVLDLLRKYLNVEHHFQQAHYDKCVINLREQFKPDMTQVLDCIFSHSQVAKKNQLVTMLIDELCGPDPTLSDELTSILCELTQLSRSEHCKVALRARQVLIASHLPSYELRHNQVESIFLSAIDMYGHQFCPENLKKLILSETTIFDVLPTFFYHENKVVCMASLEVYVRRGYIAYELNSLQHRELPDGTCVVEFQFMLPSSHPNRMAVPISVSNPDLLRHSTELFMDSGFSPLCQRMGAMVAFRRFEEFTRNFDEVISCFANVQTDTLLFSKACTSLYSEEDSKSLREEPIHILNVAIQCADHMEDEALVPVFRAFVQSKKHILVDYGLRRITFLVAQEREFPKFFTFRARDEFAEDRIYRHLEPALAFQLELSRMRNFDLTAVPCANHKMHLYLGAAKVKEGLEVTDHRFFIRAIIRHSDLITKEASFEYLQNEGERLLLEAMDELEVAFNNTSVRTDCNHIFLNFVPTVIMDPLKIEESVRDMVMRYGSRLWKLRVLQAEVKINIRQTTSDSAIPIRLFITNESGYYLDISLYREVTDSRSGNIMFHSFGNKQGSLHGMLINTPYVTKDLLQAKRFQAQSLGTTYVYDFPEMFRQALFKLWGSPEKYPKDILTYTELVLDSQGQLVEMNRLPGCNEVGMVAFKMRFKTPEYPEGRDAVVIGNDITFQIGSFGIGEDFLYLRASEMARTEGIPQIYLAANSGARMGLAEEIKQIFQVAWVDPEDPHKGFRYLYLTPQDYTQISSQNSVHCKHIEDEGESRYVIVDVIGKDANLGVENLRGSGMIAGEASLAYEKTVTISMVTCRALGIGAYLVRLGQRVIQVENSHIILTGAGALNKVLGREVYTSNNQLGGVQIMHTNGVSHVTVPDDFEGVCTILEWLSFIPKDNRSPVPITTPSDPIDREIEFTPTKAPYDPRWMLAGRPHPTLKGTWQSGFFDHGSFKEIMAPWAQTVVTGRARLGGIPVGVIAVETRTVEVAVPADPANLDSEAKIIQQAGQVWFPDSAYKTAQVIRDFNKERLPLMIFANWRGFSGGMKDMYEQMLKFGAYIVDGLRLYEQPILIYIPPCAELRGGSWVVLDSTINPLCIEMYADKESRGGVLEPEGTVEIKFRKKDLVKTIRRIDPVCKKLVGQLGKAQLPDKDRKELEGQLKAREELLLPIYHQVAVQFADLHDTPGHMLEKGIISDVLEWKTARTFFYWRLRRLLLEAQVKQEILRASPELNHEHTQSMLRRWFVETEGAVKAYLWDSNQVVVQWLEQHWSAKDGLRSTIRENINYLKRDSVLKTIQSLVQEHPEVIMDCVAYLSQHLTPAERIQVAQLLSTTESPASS

A word on the pIC50: it is the IC50 on a negative log10 scale, so that one unit is a factor of ten. Lower therefore signals a large IC50. Take `CC(NC(=O)N(C)C)c1ccc2nc(-c3ccc(Oc4cccc(OCC5CC5)c4)nc3)oc2c1` (configuration not stated): the pIC50 was 8.68 in data set [1] and 7.10 in data set [2].

For orientation: Cmax means the maximum level reached in the sampled fluid or tissue. In general, AUC(0-t) refers to the area under the concentration-time curve up to a stated or last time point. One may read the MRT as a mean duration of stay, worked out from the concentration-time curve. Usually half-life stands for the time needed for the level to fall by half in the phase considered. Lower therefore signals fast loss. By clearance is commonly meant a measure of how efficiently the substance is removed, as volume per time. The term Vd denotes the apparent volume that relates the amount in the body to the concentration in plasma or blood. The low end stands for little distribution into tissue, the high end for wide distribution into tissue. One may read the bioavailability as dose-corrected exposure relative to a reference, in per cent. Read a low bioavailability as poor availability. A word on the Papp: it is the rate of passage across a membrane or cell layer, normalised by area and donor concentration. Read a high Papp as ready permeation. As usually defined, the microsomal CLint is the rate of metabolic loss divided by the concentration. Read a low microsomal CLint as slow turnover. The molecule `CC(=O)NC(C)c1ccc2nc(-c3ccc(Oc4cccc(OCC5CC5)c4)nc3)oc2c1` (configuration not stated) had a Cmax in [3] of 1110 ng/mL. The molecule also had an AUC(0-t) at 8 h in data set [4] of 6880 ng·h/mL. The MRT in [5] stood at 3.69 h. In data set [6], this molecule gave a half-life of more than 8 h. Moreover, the clearance in data set [7] was 1.47 mL/min/kg. In addition, in data set [8], the Vd was determined as 0.269 L/kg. The molecule further returned a bioavailability in data set [9] of 60.6%. In addition, the results for the Papp in data set [10] and in data set [13] were 27.2 ×10⁻⁶ cm/s and 33.7 ×10⁻⁶ cm/s, respectively. In addition, the intrinsic metabolic clearance (microsomal CLint) in data set [11] is 27 µL/min/mg; in data set [12] it was 65 µL/min/mg. The values for the pIC50 in data set [14] and in data set [15] were 9.74 and 7.44, respectively.

Consider `CNC(=O)NC(C)c1ccc2nc(-c3ccc(Oc4cccc(OCC5CC5)c4)nc3)oc2c1` (configuration not stated), for which the figures for the pIC50 in data set [1] and in [2] were 8.42 and 7.11, respectively.

The values above are taken from ChEMBL document CHEMBL4406889, “The identification and pharmacological evaluation of potent, selective and orally available ACC1 inhibitor” (Bioorg Med Chem Lett, 2019).
